The values below come from ChEMBL document CHEMBL1135798, “Structure-activity relationships of the antimalarial agent artemisinin. 6. The development of predictive in vitro potency models using CoMFA and HQSAR methodologies” (2002).

This assay deals with Plasmodium falciparum. The assay is described as follows: Antimalarial activity against chloroquine-resistant, mefloquine-sensitive Plasmodium falciparum W2. In kind it is functional.

Consider `CCCC[C@H]1C(=O)OC2OC(C)(C)OO[C@@]23CCCCC13` (some centres undefined), for which the “Log RA” value is -1.13.

`CCC(=O)OCC(CC)(CC)OOC(C)(C)C`: the “Log RA” value is -4.

For `CO[C@H]1OC2(C)CC[C@H]3CCC[C@@H](CCOCc4ccc(F)cc4)C31OO2` (some centres undefined), the “Log RA” value stood at 0.38.

In the case of `CCC[C@@H](Cc1ccccc1)OC1O[C@@H]2O[C@@]3(C)CC[C@H]4[C@H](C)CC[C@@H]([C@H]1C)[C@@]24OO3` (some centres undefined), the “Log RA” value was found to be 0.31.

On to `C[C@@H]1CC[C@H]2CC(=O)O[C@@H]3O[C@@]4(C)CC[C@@H]1[C@@]23OO4`, for which the “Log RA” value was 0.79.

As to `CC(C)CCC[C@H]1C(=O)O[C@@H]2O[C@@]3(C)CC[C@H]4[C@H](C)CC[C@@H]1[C@@]24OO3`, the “Log RA” value was -0.04.

Consider `C[C@@H]1CC[C@H]2[C@@H](CCCc3ccc(Cl)cc3)C(=O)O[C@@H]3O[C@@]4(C)CC[C@@H]1[C@]32OO4`, for which the “Log RA” value is listed as 1.37.

For the compound `C[C@@H]1CC[C@H]2CCO[C@@H]3O[C@@]4(CCCCc5ccccc5)CC[C@@H]1[C@@]23OO4`, the “Log RA” value is reported as 0.58.

Turning to `CCC[C@H]1CO[C@@H]2O[C@@]3(C)CC[C@H]4[C@H](C)CC[C@@H]1[C@@]24OO3`, the “Log RA” value is listed as 0.74.

Regarding `C[C@@H]1CC[C@H]2CCO[C@@H]3O[C@@]4(C)CC[C@@H]1[C@@]23OO4`, the “Log RA” value is on record as 0.28.

For the compound `CCCC[C@H]1C(O)O[C@@H]2O[C@@]3(C)CC[C@H]4[C@H](C)CC[C@@H]1[C@@]24OO3` (some centres undefined), the “Log RA” value is 0.96.

Regarding `CO[C@H]1O[C@@]2(C)CC[C@H]3CCC[C@@H](CCOCc4ccccn4)[C@]31OO2`, the “Log RA” value worked out at 0.17.

For the compound `CCOC1O[C@@H]2O[C@@]3(C)CC[C@H]4[C@H](C)CC[C@@H]([C@H]1C)[C@@]24OO3` (some centres undefined), the “Log RA” value was determined as 0.34.

In the case of `C[C@@H]1CC[C@H]2[C@H](C)C(=O)O[C@@H]3O[C@@]4(C)CC[C@@H]1[C@]32OO4`, the “Log RA” value is -0.17.

Consider `CC1CO[C@@H]2O[C@@]3(C)CC[C@H]4[C@H](C)CC[C@@H]1[C@@]24OO3` (some centres undefined), for which the “Log RA” value is listed as -0.79.

In the case of `CO[C@H]1O[C@]2(C)OO[C@]13[C@H](CCO)CCC[C@@H]3C[C@@H]2C`, the “Log RA” value amounted to 0.23.

On to `C[C@@H]1CCC2[C@@H](C)COC3OC4(CCCC4)OO[C@@]32C1` (some centres undefined), for which the “Log RA” value is listed as -0.26.

`CO[C@@]1(C)CC[C@H]2[C@H](C)CCC[C@]2(C=O)OO1`: the “Log RA” value was -4.

As for `c1ccc([C@@]23CCC[C@](c4ccccc4)(CC2)OO3)cc1`, the “Log RA” value is -0.91.

In the case of `C[C@H]1C(=O)OC2OC(C)(C)OO[C@@]23CCCCC13` (some centres undefined), the “Log RA” value is -1.27.

As for `C[C@H]1[C@@H](O[C@@H](CC(=O)O)c2ccc([N+](=O)[O-])cc2)O[C@@H]2O[C@@]3(C)CC[C@H]4[C@H](C)CC[C@@H]1[C@@]24OO3`, the “Log RA” value stood at 0.1.

Consider `C[C@H]1[C@@H](O[C@@H](C)c2ccc(C(F)(F)F)cc2)O[C@@H]2O[C@@]3(C)CC[C@H]4[C@H](C)CC[C@@H]1[C@@]24OO3`, for which the “Log RA” value worked out at 0.15.

For the compound `C[C@@H]1CC[C@H]2[C@@H](CCc3ccccc3)C(=O)O[C@@H]3O[C@@]4(C)CC[C@@H]1[C@]32O4`, the “Log RA” value was -4.

Consider `C[C@@H]1CC[C@H]2[C@@H](CCCc3ccccc3)C(=O)O[C@@H]3O[C@@]4(C)CC[C@@H]1[C@]32O4`, for which the “Log RA” value is reported as -4.

On to `C[C@@H]1CC[C@H]2C(=O)C(=O)O[C@@H]3O[C@@]4(C)CC[C@@H]1[C@]32OO4`, for which the “Log RA” value was -2.47.

As to `CC(C)C[C@H]1C(=O)O[C@@H]2O[C@@]3(C)CC[C@H]4[C@H](C)CC[C@@H]1[C@@]24OO3`, the “Log RA” value is -0.55.

Consider `CO[C@H]1O[C@@]2(C)CC[C@H]3CCC[C@@H](CCOC(=O)CNC(=O)OC(C)(C)C)[C@]31OO2`, for which the “Log RA” value is reported as -0.04.

As for `C[C@@H]1CC[C@@H]2[C@]34OO[C@](C)(CC[C@@H]13)O[C@H]4OC(Nc1ncccn1)[C@@]2(C)Br` (some centres undefined), the “Log RA” value was -0.77.

For `C[C@@H]1CC[C@@H]2[C@]34OO[C@](C)(CC[C@@H]13)O[C@H]4OC(Nc1cccc(F)c1)[C@@]2(C)Br` (some centres undefined), the “Log RA” value is given as 0.79.

With `CO[C@H]1O[C@@]2(C)CC[C@H]3CCC[C@@H](CCOC(=O)c4ccc(C(=O)OCCN(C)C)cc4)[C@]31OO2`, the “Log RA” value is given as -0.6.

`CO[C@H]1O[C@@]2(C)CC[C@H]3CCC[C@@H](CCOC(=O)c4ccccc4)[C@]31OO2`: the “Log RA” value is given as -0.59.

With `CO[C@H]1O[C@@]2(C)CC[C@H]3CCC[C@@H](CCOCc4c(C)noc4C)[C@]31OO2`, the “Log RA” value was found to be 0.58.

For the compound `C[C@@H]1CC[C@H]2[C@@H](C)C(CC(F)F)O[C@@H]3O[C@@]4(C)CC[C@@H]1[C@]32OO4` (some centres undefined), the “Log RA” value is listed as 0.11.

As for `C[C@@H]1CC[C@H]2CC(=O)O[C@@H]3O[C@H]4CC[C@@H]1[C@@]23OO4`, the “Log RA” value is recorded as -2.76.

As for `CO[C@@H]1O[C@@]2(C)CC[C@H]3CCC[C@@H](CCOC(=O)N(c4ccccc4)c4ccccc4)[C@]31OO2`, the “Log RA” value is listed as 1.06.

Consider `COC(=O)c1ccccc1S(=O)(=O)OCC[C@@H]1CCC[C@@H]2CC[C@@]3(C)OO[C@]21[C@@H](OC)O3`, for which the “Log RA” value is reported as -0.87.

As for `CO[C@H]1O[C@@]2(C)CC[C@H]3CCC[C@@H](CCOS(=O)(=O)c4ccc(C)cc4)[C@]31OO2`, the “Log RA” value was 0.2.

Take `C[C@@H]1CC[C@@H]2[C@]34OO[C@](C)(CC[C@@H]13)O[C@H]4OC(OCC(F)(F)F)[C@@]2(C)O` (some centres undefined): the “Log RA” value amounted to 0.29.

For the compound `C[C@@H]1CC[C@@H]2[C@]34OO[C@](C)(CC[C@@H]13)O[C@H]4OC(O)[C@@]21CO1` (some centres undefined), the “Log RA” value was -0.62.

For `C[C@@H]1CCC[C@]23OO[C@](C)(CC[C@@H]12)O[C@H]3OC(=O)Cc1ccccc1`, the “Log RA” value is given as -0.51.

For `C[C@@H]1CC[C@H]2[C@@H](C)C(=O)N[C@@H]3O[C@@]4(C)CC[C@@H]1[C@]32O4`, the “Log RA” value is listed as -4.

In the case of `C[C@@H]1CC[C@H]2[C@H]3CCCO[C@H]3O[C@@H]3O[C@@]4(C)CC[C@@H]1[C@]32OO4`, the “Log RA” value worked out at 0.23.

On to `C[C@@H]1CC[C@@H]2[C@]34OO[C@](C)(CC[C@@H]13)O[C@H]4OC(=O)[C@@]2(O)CO`, for which the “Log RA” value was -4.

`C[C@@H]1CC[C@@H]2[C@]34OO[C@](C)(CC[C@@H]13)O[C@H]4OC(=O)[C@@]2(Br)CBr`: the “Log RA” value was -1.64.

In the case of `C/C=C\C[C@@H]1C(=O)O[C@@H]2O[C@@]3(C)CC[C@H]4[C@H](C)CC[C@@H]1[C@@]24OO3`, the “Log RA” value is -1.1.

With `CCOC1O[C@@H]2O[C@@]3(C)CC[C@H]4[C@H](C)CC[C@@H]([C@H]1CC)[C@@]24OO3` (some centres undefined), the “Log RA” value amounted to 0.5.

For the compound `C[C@@H]1CC[C@H]2CC(=O)N(CCCc3ccccc3)[C@@H]3O[C@@]4(C)CC[C@@H]1[C@@]23OO4`, the “Log RA” value came out at 0.02.

Turning to `CCCCC1O[C@@H]2O[C@@]3(C)CC[C@H]4[C@H](C)CC[C@@H]([C@H]1C)[C@@]24OO3` (some centres undefined), the “Log RA” value turned out to be 0.06.

Regarding `CCOC1O[C@@H]2O[C@@]3(C)CC[C@H]4[C@H](C)CC[C@H]([C@@]24OO3)[C@@]1(C)O` (some centres undefined), the “Log RA” value is given as -1.13.

As to `C[C@@H]1CC[C@@H]2[C@]34OO[C@](C)(CC[C@@H]13)O[C@H]4OC(OCC(F)(F)F)[C@]2(C)O` (some centres undefined), the “Log RA” value is reported as -0.7.

Turning to `CC(C)CN1C(=O)[C@H](C)[C@@H]2CC[C@@H](C)[C@@H]3CC[C@@]4(C)OO[C@]32[C@H]1O4`, the “Log RA” value was found to be 1.03.

On to `COC(=O)C[C@H](C)OC1O[C@@H]2O[C@@]3(C)CC[C@H]4[C@H](C)CC[C@@H]([C@H]1C)[C@@]24OO3` (some centres undefined), for which the “Log RA” value was determined as 0.87.

Regarding `C[C@@H]1CC[C@@H]2[C@]34OO[C@](C)(CC[C@@H]13)O[C@H]4OC(=O)[C@@]21CCC1C[Si](C)(C)C` (some centres undefined), the “Log RA” value is reported as -1.24.

Take `C/C=C1\C(=O)O[C@@H]2O[C@@]3(C)CC[C@H]4[C@H](C)CC[C@@H]1[C@@]24OO3`: the “Log RA” value was -0.36.

For the compound `CCCC[C@H]1CO[C@@H]2O[C@@]3(C)CC[C@H]4[C@H](C)CC[C@@H]1[C@@]24O3`, the “Log RA” value is -4.

On to `CCOC(=O)C[C@@H](O[C@H]1O[C@@H]2O[C@@]3(C)CC[C@H]4[C@H](C)CC[C@@H]([C@H]1C)[C@@]24OO3)c1ccc([N+](=O)[O-])cc1`, for which the “Log RA” value amounted to 0.9.

For the compound `CC(=O)Oc1ccc([C@H](C)O[C@H]2O[C@@H]3O[C@@]4(C)CC[C@H]5[C@H](C)CC[C@@H]([C@H]2C)[C@@]35OO4)cc1`, the “Log RA” value came out at 0.68.

In the case of `CCOC(=O)C[C@@H](O[C@H]1O[C@@H]2O[C@@]3(C)CC[C@H]4[C@H](C)CC[C@@H]([C@H]1C)[C@@]24OO3)c1ccccc1`, the “Log RA” value is reported as 1.07.

In the case of `C[C@@H]1CC[C@H]2CCO[C@@H]3O[C@@]4(CCCc5ccc(Cl)cc5)CC[C@@H]1[C@@]23OO4`, the “Log RA” value was -0.55.

Take `C[C@@H]1CC[C@H]2[C@@H](CCCc3ccccc3)CO[C@@H]3O[C@@]4(C)CC[C@@H]1[C@]32OO4`: the “Log RA” value turned out to be 1.4.

Regarding `C[C@]12CC[C@H]3CCCC[C@@]3(OO1)[C@H](OCc1ccccc1)O2`, the “Log RA” value is -0.09.

As to `CC[C@@]12CC[C@H]3[C@H](C)CC[C@H]4CCO[C@H](O1)[C@]43OO2`, the “Log RA” value is given as -1.

On to `CCO[C@H]1O[C@@H]2O[C@@]3(C)CC[C@H]4[C@H](C)CC[C@@H]([C@H]1C)[C@@]24O3`, for which the “Log RA” value is -4.

On to `CO[C@H]1O[C@@]2(C)CC[C@H]3CCC[C@@H](CCOCc4ccncc4)[C@]31OO2`, for which the “Log RA” value came out at 0.14.
